{"source": "patent US8952157B2", "about": "“Apoptosis-inducing agents for the treatment of cancer and immune and autoimmune diseases” (AbbVie Inc., priority 2008, dated 2015)"}
{"molecular_target": "GST-Bcl-2 (Homo sapiens (Human), UniProt P10415)", "sequence (P10415 whole entry)": "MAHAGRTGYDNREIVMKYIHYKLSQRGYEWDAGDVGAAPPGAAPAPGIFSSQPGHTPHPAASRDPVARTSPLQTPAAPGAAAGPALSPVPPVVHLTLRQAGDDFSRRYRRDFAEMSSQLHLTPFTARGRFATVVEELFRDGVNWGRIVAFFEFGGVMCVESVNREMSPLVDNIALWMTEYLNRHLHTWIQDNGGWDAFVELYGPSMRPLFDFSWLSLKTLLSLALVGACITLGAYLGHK", "assay": "Time Resolved-Fluorescence Resonance Energy Transfer (TR-FRET) Bcl-2 binding assay", "details": "not given", "outline": "(§1)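 Ki values derived from TR-FRET displacement of F-Bak peptide from GST-Bcl-2, detected with Tb-labelled anti-GST antibody (ex 340, em 520/495 nm). Compound dilution series started at 50 μM (2× starting concentration); room-temperature incubation 3 hours.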", "units": {"Ki": "nM"}}
{"smiles": "CO[C@H]1CC[C@H](CNc2ccc(S(=O)(=O)NC(=O)c3ccc(N4CCN(CC5=C(c6ccc(Cl)cc6)CC(C)(C)CC5)CC4)cc3Oc3ccc(NCC(F)F)nc3)cc2[N+](=O)[O-])CC1", "note": "[Example 375, Trans-4-(4-{[2-(4-chlorophenyl)-4,4-dimethylcyclohex-1-en-1-yl]methyl}piperazin-1-yl)-2-({6-[(2,2-difluoroethyl)amino]pyridin-3-yl}oxy)-N-[(4-{[(4-methoxycyclohexyl)methyl]amino}-3-nitrophenyl)sulfonyl]benzamide]", "Ki": 328}
{"smiles": "CC1(C)CCC(CN2CCN(c3ccc(C(=O)NS(=O)(=O)c4ccc(N[C@H]5CC[C@H](N6CCOCC6)CC5)c([N+](=O)[O-])c4)c(Oc4cc5cc[nH]c5cc4F)c3)CC2)=C(c2ccc(Cl)cc2)C1", "note": "[Example 234, Trans-4-(4-{[2-(4-chlorophenyl)-4,4-dimethylcyclohex-1-en-1-yl]methyl}piperazin-1-yl)-2-[(6-fluoro-1H-indol-5-yl)oxy]-N-({4-[(4-morpholin-4-ylcyclohexyl)amino]-3-nitrophenyl}sulfonyl)benzamide]", "Ki": 0.099}
{"molecular_target": "GST-Bcl-2 (Homo sapiens (Human), UniProt P10415)", "assay": "Time Resolved-Fluorescence Resonance Energy Transfer (TR-FRET) Bcl-2 binding assay", "details": "GST-Bcl-2 1 nM, F-Bak peptide probe 100 nM, Tb-anti-GST antibody 1 nM; Ki by Wang's equation", "outline": "as §1", "units": {"Ki": "nM"}}
{"smiles": "CC(C)N1CCC(Nc2ccc(S(=O)(=O)NC(=O)c3ccc(N4CCN(CC5=C(c6ccc(Cl)cc6)CC(C)(C)CC5)CC4)cc3Oc3ccccc3Cl)cc2[N+](=O)[O-])CC1", "note": "[Example 41, 2-(2-chlorophenoxy)-4-(4-((2-(4-chlorophenyl)-4,4-dimethylcyclohex-1-en-1-yl)methyl)piperazin-1-yl)-N-((4-((1-isopropylpiperidin-4-yl)amino)-3-nitrophenyl)sulfonyl)benzamide]", "Ki": 0.027}
{"smiles": "CN1CCC(Nc2ccc(S(=O)(=O)NC(=O)c3ccc(N4CCN(CC5=C(c6ccc(Cl)cc6)CC(C)(C)CC5)CC4)cc3Oc3cccc(C(F)(F)F)c3Cl)cc2[N+](=O)[O-])CC1", "note": "[Example 64, 4-(4-((2-(4-chlorophenyl)-4,4-dimethylcyclohex-1-en-1-yl)methyl)piperazin-1-yl)-2-(2-chloro-3-(trifluoromethyl)phenoxy)-N-((4-((1-methylpiperidin-4-yl)amino)-3-nitrophenyl)sulfonyl)benzamide]", "Ki": 0.458}
{"smiles": "CC1(C)CCC(CN2CCN(c3ccc(C(=O)NS(=O)(=O)c4ccc(OCC5(F)CCOCC5)c([N+](=O)[O-])c4)c(Oc4cnc(N)c(Cl)c4)c3)CC2)=C(c2ccc(Cl)cc2)C1", "note": "[Example 330, 2-[(6-amino-5-chloropyridin-3-yl)oxy]-4-(4-{[2-(4-chlorophenyl)-4,4-dimethylcyclohex-1-en-1-yl]methyl}piperazin-1-yl)-N-({4-[(4-fluorotetrahydro-2H-pyran-4-yl)methoxy]-3-nitrophenyl}sulfonyl)benzamide]", "Ki": "< 0.01"}
{"smiles": "CN1CCC(Nc2ccc(S(=O)(=O)NC(=O)c3ccc(N4CCN(CC5=C(c6ccc(Cl)cc6)CC(C)(C)CC5)CC4)cc3Oc3cccc(F)c3F)cc2[N+](=O)[O-])CC1", "note": "[Example 45, 4-(4-((2-(4-chlorophenyl)-4,4-dimethylcyclohex-1-en-1-yl)methyl)piperazin-1-yl)-2-(2,3-difluorophenoxy)-N-((4-((1-methylpiperidin-4-yl)amino)-3-nitrophenyl)sulfonyl)benzamide]", "Ki": 0.047}
{"smiles": "CN1CCN(Nc2ccc(S(=O)(=O)NC(=O)c3ccc(N4CCN(CC5=C(c6ccc(Cl)cc6)CC(C)(C)CC5)CC4)cc3Oc3cccc(Cl)c3)cc2[N+](=O)[O-])CC1", "note": "[Example 199, 2-(3-chlorophenoxy)-4-(4-{[2-(4-chlorophenyl)-4,4-dimethylcyclohex-1-en-1-yl]methyl}piperazin-1-yl)-N-({4-[(4-methylpiperazin-1-yl)amino]-3-nitrophenyl}sulfonyl)benzamide]", "Ki": 0.244}
{"smiles": "CN(C)C(=O)Cc1ccccc1Oc1cc(N2CCN(Cc3ccccc3-c3ccc(Cl)cc3)CC2)ccc1C(=O)NS(=O)(=O)c1ccc(NCC2CCOCC2)c([N+](=O)[O-])c1", "note": "[Example 27, 4-(4-((4′-chloro-1,1′-biphenyl-2-yl)methyl)piperazin-1-yl)-2-(2-(2-(dimethylamino)-2-oxoethyl)phenoxy)-N-((3-nitro-4-((tetrahydro-2H-pyran-4-ylmethyl)amino)phenyl)sulfonyl)benzamide]", "Ki": 2.21}
{"smiles": "CN1CCN(Nc2ccc(S(=O)(=O)NC(=O)c3ccc(N4CCN(CC5=C(c6ccc(Cl)cc6)CC(C)(C)CC5)CC4)cc3Oc3cnc(N)c(Br)c3)cc2[N+](=O)[O-])CC1", "note": "[Example 359, 2-[(6-amino-5-bromopyridin-3-yl)oxy]-4-(4-{[2-(4-chlorophenyl)-4,4-dimethylcyclohex-1-en-1-yl]methyl}piperazin-1-yl)-N-({4-[(4-methylpiperazin-1-yl)amino]-3-nitrophenyl}sulfonyl)benzamide]", "Ki": 0.11}
{"smiles": "CC1(C)CCC(CN2CCN(c3ccc(C(=O)NS(=O)(=O)c4ccc(NCC5(F)CCOCC5)c([N+](=O)[O-])c4)c(Oc4cc5cc[nH]c5cc4F)c3)CC2)=C(c2ccc(Cl)cc2)C1", "note": "[Example 337, 4-(4-{[2-(4-chlorophenyl)-4,4-dimethylcyclohex-1-en-1-yl]methyl}piperazin-1-yl)-2-[(6-fluoro-1H-indol-5-yl)oxy]-N-[(4-{[(4-fluorotetrahydro-2H-pyran-4-yl)methyl]amino}-3-nitrophenyl)sulfonyl]benzamide]", "Ki": 0.049}
{"smiles": "CC1(C)CCC(CN2CCN(c3ccc(C(=O)NS(=O)(=O)c4ccc(NC5CCN(C6CCOCC6)CC5)c([N+](=O)[O-])c4)c(Oc4ccc5nc(N)sc5c4)c3)CC2)=C(c2ccc(Cl)cc2)C1", "note": "[Example 232, 2-[(2-amino-1,3-benzothiazol-6-yl)oxy]-4-(4-{[2-(4-chlorophenyl)-4,4-dimethylcyclohex-1-en-1-yl]methyl}piperazin-1-yl)-N-({3-nitro-4-[(1-tetrahydro-2H-pyran-4-ylpiperidin-4-yl)amino]phenyl}sulfonyl)benzamide]", "Ki": 1.05}
{"smiles": "CC1(C)CCC(CN2CCN(c3ccc(C(=O)NS(=O)(=O)c4cnc(OCC5(F)CCOCC5)c(Cl)c4)c(Oc4cc5cc[nH]c5cc4F)c3)CC2)=C(c2ccc(Cl)cc2)C1", "note": "[Example 326, N-({5-chloro-6-[(4-fluorotetrahydro-2H-pyran-4-yl)methoxy]pyridin-3-yl}sulfonyl)-4-(4-{[2-(4-chlorophenyl)-4,4-dimethylcyclohex-1-en-1-yl]methyl}piperazin-1-yl)-2-[(6-fluoro-1H-indol-5-yl)oxy]benzamide]", "Ki": 0.037}
{"smiles": "Cc1cc(Oc2cc(N3CCN(CC4=C(c5ccc(Cl)cc5)CC(C)(C)CC4)CC3)ccc2C(=O)NS(=O)(=O)c2ccc(NCC3CCOCC3)c([N+](=O)[O-])c2)cnc1N", "note": "[Example 362, 2-[(6-amino-5-methylpyridin-3-yl)oxy]-4-(4-{[2-(4-chlorophenyl)-4,4-dimethylcyclohex-1-en-1-yl]methyl}piperazin-1-yl)-N-({3-nitro-4-[(tetrahydro-2H-pyran-4-ylmethyl)amino]phenyl}sulfonyl)benzamide]", "Ki": 0.033}
{"smiles": "CN1CCC(Nc2ccc(S(=O)(=O)NC(=O)c3ccc(N4CCN(CC5=C(c6ccc(Cl)cc6)CC(C)(C)CC5)CC4)cc3Oc3cccc(F)c3Cl)cc2[N+](=O)[O-])CC1", "note": "[Example 177, 2-(2-chloro-3-fluorophenoxy)-4-(4-{[2-(4-chlorophenyl)-4,4-dimethylcyclohex-1-en-1-yl]methyl}piperazin-1-yl)-N-({4-[(1-methylpiperidin-4-yl)amino]-3-nitrophenyl}sulfonyl)benzamide]", "Ki": 0.037}
{"smiles": "CN1CCC(O)(CNc2ccc(S(=O)(=O)NC(=O)c3ccc(N4CCN(CC5=C(c6ccc(Cl)cc6)CC(C)(C)CC5)CC4)cc3Oc3ccccc3Cl)cc2[N+](=O)[O-])CC1", "note": "[Example 192, 2-(2-chlorophenoxy)-4-(4-{[2-(4-chlorophenyl)-4,4-dimethylcyclohex-1-en-1-yl]methyl}piperazin-1-yl)-N-[(4-{[(4-hydroxy-1-methylpiperidin-4-yl)methyl]amino}-3-nitrophenyl)sulfonyl]benzamide]", "Ki": 0.024}
{"smiles": "CC1(C)CCC(CN2CCN(c3ccc(C(=O)NS(=O)(=O)c4ccc(NCC5CCOCC5)c([N+](=O)[O-])c4)c(Oc4cccc5c4CCN(C(=O)OC(C)(C)C)C5)c3)CC2)=C(c2ccc(Cl)cc2)C1", "note": "[Example 260, tert-butyl 5-(5-(4-{[2-(4-chlorophenyl)-4,4-dimethylcyclohex-1-en-1-yl]methyl}piperazin-1-yl)-2-{[({3-nitro-4-[(tetrahydro-2H-pyran-4-ylmethyl)amino]phenyl}sulfonyl)amino]carbonyl}phenoxy)-3,4-dihydro isoquinoline-2(H)-carboxylate]", "Ki": 11.8}
{"smiles": "CC1(C)CC(c2ccc(Cl)cc2)=C(CN2CCN(c3ccc(C(=O)NS(=O)(=O)c4ccc(NCC5CCOCC5)c([N+](=O)[O-])c4)c(Oc4cc5cc[nH]c5cc4Cl)c3)CC2)CO1", "note": "[Example 275, 2-[(6-chloro-1H-indol-5-yl)oxy]-4-(4-{[4-(4-chlorophenyl)-6,6-dimethyl-5,6-dihydro-2H-pyran-3-yl]methyl}piperazin-1-yl)-N-({3-nitro-4-[(tetrahydro-2H-pyran-4-ylmethyl)amino]phenyl}sulfonyl)benzamide]", "Ki": 0.081}
{"smiles": "CC1(C)CCC(CN2CCN(c3ccc(C(=O)NS(=O)(=O)c4ccc(NCC5CCOCC5)c([N+](=O)[O-])c4)c(Oc4cnc(N)c(C#N)c4)c3)CC2)=C(c2ccc(Cl)cc2)C1", "note": "[Example 352, 2-[(6-amino-5-cyanopyridin-3-yl)oxy]-4-(4-{[2-(4-chlorophenyl)-4,4-dimethylcyclohex-1-en-1-yl]methyl}piperazin-1-yl)-N-({3-nitro-4-[(tetrahydro-2H-pyran-4-ylmethyl)amino]phenyl}sulfonyl)benzamide]", "Ki": 0.079}
{"smiles": "CC1(C)CCC(CN2CCN(c3ccc(C(=O)NS(=O)(=O)c4ccc(NCC5CCOCC5)c([N+](=O)[O-])c4)c(Oc4cnc5[nH]ccc5c4Cl)c3)CC2)=C(c2ccc(Cl)cc2)C1", "note": "[Example 384, 4-(4-{[2-(4-chlorophenyl)-4,4-dimethylcyclohex-1-en-1-yl]methyl}piperazin-1-yl)-2-[(4-chloro-1H-pyrrolo[2,3-b]pyridin-5-yl)oxy]-N-({3-nitro-4-[(tetrahydro-2H-pyran-4-ylmethyl)amino]phenyl}sulfonyl)benzamide]", "Ki": 6.23}
